Key:
[1] = biological target: IniA (Mycolicibacterium smegmatis, UniProt I7FE16, K73A); experiment: isothermal titration calorimetry; assay type: binding
From the text: isothermal titration calorimetry on IniA | showing only a twofold reduction in affinity for GMPPNP or GTP | the mutant IniA largely maintained interactions with GDP

[2] = biological target: IniA (Mycolicibacterium smegmatis, UniProt I7FE16); experiment: isothermal titration calorimetry; assay type: binding
Sequence of IniA (Mycolicibacterium smegmatis, UniProt I7FE16) (I7FE16 entry or part of it): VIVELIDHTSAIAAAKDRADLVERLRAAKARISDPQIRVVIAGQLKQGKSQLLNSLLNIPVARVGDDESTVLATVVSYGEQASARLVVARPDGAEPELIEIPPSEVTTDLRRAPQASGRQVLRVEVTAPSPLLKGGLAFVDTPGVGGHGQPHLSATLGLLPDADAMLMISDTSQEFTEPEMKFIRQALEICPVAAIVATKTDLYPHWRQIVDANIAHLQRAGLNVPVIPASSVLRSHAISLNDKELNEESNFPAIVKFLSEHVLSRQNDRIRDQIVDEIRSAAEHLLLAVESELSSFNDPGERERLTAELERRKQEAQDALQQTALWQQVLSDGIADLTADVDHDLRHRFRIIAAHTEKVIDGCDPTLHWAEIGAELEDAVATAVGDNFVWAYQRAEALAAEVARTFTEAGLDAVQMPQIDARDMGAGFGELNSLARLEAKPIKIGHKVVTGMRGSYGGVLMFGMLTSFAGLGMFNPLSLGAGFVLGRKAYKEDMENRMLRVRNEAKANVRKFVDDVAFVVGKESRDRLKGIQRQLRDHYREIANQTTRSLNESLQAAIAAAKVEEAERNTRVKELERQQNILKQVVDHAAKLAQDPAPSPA

Sequence of IniA (Mycolicibacterium smegmatis, UniProt I7FE16, K73A) (I7FE16 entry or part of it K73A): as the sequence (I7FE16 entry or part of it) above

Compound	Kd [1] [nM]	Kd [2] [nM]
Nc1nc2c(ncn2[C@@H]2O[C@H](COP(=O)(O)OP(=O)(O)O)[C@@H](O)[C@H]2O)c(=O)[nH]1 [GDP]	~1060	750
Nc1nc2c(ncn2[C@@H]2O[C@H](COP(=O)(O)OP(=O)(O)NP(=O)(O)O)[C@@H](O)[C@H]2O)c(=O)[nH]1 [GMPPNP]	~23200	9010
Nc1nc2c(ncn2[C@@H]2O[C@H](COP(=O)(O)OP(=O)(O)OP(=O)(O)O)[C@@H](O)[C@H]2O)c(=O)[nH]1 [GTP]	~1430	740

Reference: paper PMC6715688, “Mycobacterial dynamin-like protein IniA mediates membrane fission” (Nature Communications, 2019)
